# Several values for one entry are separate records, joined by “and”; a condition that tells them apart may be missing. Equal entries are not always repeated. Toxic doses and inconclusive results are not listed.
# Test system: P388 leukemia ip, CD2F1 mice, survival T/C
# Test: NCI In Vivo Anticancer Drug Screen. Data for tumor model P388 Leukemia (intraperitoneal) in CD2F1 (CDF1) mice
# Conditions: endpoint: median survival time, higher = longer survival
# Summary of the method: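 Mice carrying the transplanted tumor received test compound or vehicle. Survival was recorded in each group, and the value is the treated-group measurement divided by that of the vehicle-treated control group.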
# [1] = dose: 12.5 mg/kg/injection, schedule: Q01DX009 (ip), vehicle: saline with Tween-80
# [2] = dose: 25.0 mg/kg/injection, schedule: Q01DX009 (ip), vehicle: saline with Tween-80
# [3] = dose: 60.0 mg/kg/injection, schedule: Q01DX005 (ip), vehicle: Klucel (hydroxypropylcellulose) (HPC)
# [4] = dose: 120.0 mg/kg/injection, schedule: Q01DX005 (ip), vehicle: Klucel (hydroxypropylcellulose) (HPC)
# [5] = dose: 60.0 mg/kg/injection, schedule: Q01DX005 (ip), vehicle: saline with Tween-80
structure (smiles),measurement,setting,value
Oc1ccc(C2(c3ccc(O)c(Cl)c3)CC3CCC2C3)cc1Cl (stereo not drawn),T/C,"dose: 0.79 mg/kg/injection, schedule: Q01DX009 (ip), vehicle: saline with Tween-80",103 % of control and 111 % of control
same,T/C,"dose: 1.56 mg/kg/injection, schedule: Q01DX009 (ip), vehicle: saline with Tween-80",103 % of control and 116 % of control
same,T/C,"dose: 3.12 mg/kg/injection, schedule: Q01DX009 (ip), vehicle: saline with Tween-80",103 % of control and 105 % of control
same,T/C,"dose: 6.25 mg/kg/injection, schedule: Q01DX009 (ip), vehicle: saline with Tween-80",111 % of control and 94 % of control
same,T/C,[1],97 % of control
same,T/C,[2],98 % of control
CCOC(=O)C(Cc1c[nH]c2ccccc12)NC(=O)[C@@]1(O)[C@H](O)[C@]2(CC)C=CCN3CC[C@@]4(c5cc([C@@]6(C(=O)OC)C[C@@H]7CN(CCc8c6[nH]c6ccccc86)C[C@](O)(CC)C7)c(OC)cc5N(C)[C@@H]14)[C@@H]32 (stereo partly drawn),T/C,"dose: 1.0 mg/kg/injection, schedule: Q01DX001 (ip), vehicle: saline",108 % of control and 109 % of control
same,T/C,"dose: 2.0 mg/kg/injection, schedule: Q01DX001 (ip), vehicle: saline",108 % of control and 112 % of control
same,T/C,"dose: 4.0 mg/kg/injection, schedule: Q01DX001 (ip), vehicle: saline",109 % of control and 116 % of control
same,T/C,"dose: 8.0 mg/kg/injection, schedule: Q01DX001 (ip), vehicle: saline",115 % of control and 118 % of control
same,T/C,"dose: 32.0 mg/kg/injection, schedule: Q01DX001 (ip), vehicle: saline",153 % of control and 157 % of control
Clc1ccc2nc(Cl)[nH]c2c1,T/C,"dose: 50.0 mg/kg/injection, schedule: Q01DX005 (ip), vehicle: Klucel (hydroxypropylcellulose) (HPC)",102 % of control
same,T/C,"dose: 100.0 mg/kg/injection, schedule: Q01DX005 (ip), vehicle: Klucel (hydroxypropylcellulose) (HPC)",100 % of control
same,T/C,"dose: 200.0 mg/kg/injection, schedule: Q01DX005 (ip), vehicle: Klucel (hydroxypropylcellulose) (HPC)",99 % of control
CCOC(=O)CC(C#N)(C#N)CC(=O)OCC,T/C,"dose: 50.0 mg/kg/injection, schedule: Q01DX005 (ip), vehicle: saline with Tween-80",101 % of control
same,T/C,"dose: 100.0 mg/kg/injection, schedule: Q01DX005 (ip), vehicle: saline with Tween-80",107 % of control
same,T/C,"dose: 200.0 mg/kg/injection, schedule: Q01DX005 (ip), vehicle: saline with Tween-80",106 % of control
O=C(COc1ccc([N+](=O)[O-])cc1)NN1C(=O)c2ccc([N+](=O)[O-])cc2C1=O,T/C,[3],92 % of control
same,T/C,[4],91 % of control
same,T/C,"dose: 240.0 mg/kg/injection, schedule: Q01DX005 (ip), vehicle: Klucel (hydroxypropylcellulose) (HPC)",87 % of control
C=CCSc1nc2ccc(N=Cc3ccc([N+](=O)[O-])cc3)cc2s1,T/C,"dose: 6.25 mg/kg/injection, schedule: Q01DX009 (ip), vehicle: Klucel (hydroxypropylcellulose) (HPC)",99 % of control
same,T/C,"dose: 12.5 mg/kg/injection, schedule: Q01DX009 (ip), vehicle: Klucel (hydroxypropylcellulose) (HPC)",98 % of control
same,T/C,"dose: 25.0 mg/kg/injection, schedule: Q01DX009 (ip), vehicle: Klucel (hydroxypropylcellulose) (HPC)",105 % of control
Nc1nc(N)c2nc3c(nc2n1)CCCCCCCCCC3,T/C,[1],92 % of control
same,T/C,[2],92 % of control
same,T/C,"dose: 50.0 mg/kg/injection, schedule: Q01DX009 (ip), vehicle: saline with Tween-80",89 % of control
same,T/C,"dose: 100.0 mg/kg/injection, schedule: Q01DX009 (ip), vehicle: saline with Tween-80",90 % of control
O=C(O)Cc1c(-c2noc(-c3ccccc3)c2CC(=O)O)noc1-c1ccccc1,T/C,[5],99 % of control
same,T/C,"dose: 120.0 mg/kg/injection, schedule: Q01DX005 (ip), vehicle: saline with Tween-80",103 % of control
same,T/C,"dose: 240.0 mg/kg/injection, schedule: Q01DX005 (ip), vehicle: saline with Tween-80",108 % of control
CC12c3ccccc3CCN1C(c1ccccc1)=NN2c1ccccc1 (stereo not drawn),T/C,"dose: 100.0 mg/kg/injection, schedule: Q01DX001 (ip), vehicle: saline with Tween-80",105 % of control
same,T/C,"dose: 200.0 mg/kg/injection, schedule: Q01DX001 (ip), vehicle: saline with Tween-80",103 % of control
same,T/C,"dose: 400.0 mg/kg/injection, schedule: Q01DX001 (ip), vehicle: saline with Tween-80",102 % of control
CCc1nc(N)nc(N)c1-c1ccc(N2CCOCC2)c(N=[N+]=[N-])c1,T/C,"dose: 6.25 mg/kg/injection, schedule: Q01DX005 (ip), vehicle: Klucel (hydroxypropylcellulose) (HPC)",101 % of control
same,T/C,"dose: 12.5 mg/kg/injection, schedule: Q01DX005 (ip), vehicle: Klucel (hydroxypropylcellulose) (HPC)",100 % of control
same,T/C,"dose: 25.0 mg/kg/injection, schedule: Q01DX005 (ip), vehicle: Klucel (hydroxypropylcellulose) (HPC)",97 % of control
O=S(=O)(O)SCCNCCCCC1CCCCC1,T/C,"dose: 3.75 mg/kg/injection, schedule: Q01DX005 (ip), vehicle: saline with Tween-80",99 % of control
same,T/C,"dose: 7.5 mg/kg/injection, schedule: Q01DX005 (ip), vehicle: saline with Tween-80",90 % of control
same,T/C,"dose: 15.0 mg/kg/injection, schedule: Q01DX005 (ip), vehicle: saline with Tween-80",101 % of control and 104 % of control
same,T/C,"dose: 30.0 mg/kg/injection, schedule: Q01DX005 (ip), vehicle: saline with Tween-80",111 % of control
same,T/C,[5],120 % of control
CN(C)C(=O)c1nc(CNC(=O)CN)n(-c2ccc(Cl)cc2C(=O)c2ccccc2)n1,T/C,[3],103 % of control
same,T/C,[4],100 % of control
